Non-standard residues stand in square brackets, D forms with d. Residues, ends and D or L forms follow the SMILES beside them. Dolaproine = CO[C@@H]([C@@H]1CCCN1)[C@@H](C)C(=O)O; Dil = CC[C@H](C)[C@H](NC)[C@@H](CC(=O)O)OC; NMeV = CN[C@H](C(=O)O)C(C)C

Data set [1] is described as follows: Drug uptake in human PC-3 cells assessed as increase in fluorescence intensity at upto 1000 nM by Hoechst nuclear dye based fluorescent microscopic analysis. It counts as ADME, cell-based. Particulars: pc-3, 1 µM; call rule not given here.
For data set [2], the system named is PC-3. Kind of data set: Induction of cell cycle arrest in human PC-3 cells assessed as accumulation of cells at G1/G0 phase at 50 nM measured after 4 days by PI staining based flow cytometry analysis (reference value: 67.6%). Type of data set: functional. Particulars: time 4 day.
Data set [3] deals with PC-3. Kind of data set: Induction of cell cycle arrest in human PC-3 cells assessed as accumulation of cells at G1/G0 phase at 1000 nM measured after 4 days by PI staining based flow cytometry analysis (reference value: 67.6%). It counts as functional. Particulars: time 4 day. For orientation: Flow cytometry measures light scatter and fluorescence of single cells or particles in a stream.

Data set [4] deals with PC-3. Nature of the data set: Induction of cell cycle arrest in human PC-3 cells assessed as accumulation of cells at S phase at 1 nM measured after 4 days by PI staining based flow cytometry analysis (reference value: 17.9%). Type of data set: functional. Particulars: time 4 day.
The subject of data set [5] is PC-3. Kind of data set: Induction of cell cycle arrest in human PC-3 cells assessed as accumulation of cells at G1/G0 phase at 1000 nM measured after 6 days by PI staining based flow cytometry analysis (reference value: 79.8%). It counts as functional. The conditions noted are these: time 6 day.
Data set [6] deals with PC-3. Nature of the data set: Induction of cell cycle arrest in human PC-3 cells assessed as accumulation of cells at S phase at 50 nM measured after 4 days by PI staining based flow cytometry analysis (reference value: 17.9%). Particulars: time 4 day. It counts as functional.
For data set [7], the system named is PC-3. Nature of the data set: Induction of cell cycle arrest in human PC-3 cells assessed as accumulation of cells at S phase at 50 nM measured after 6 days by PI staining based flow cytometry analysis (reference value: 8.60%). Type of data set: functional. Particulars: time 6 day.
In data set [8] the test system is PC-3. Kind of data set: Induction of cell cycle arrest in human PC-3 cells assessed as accumulation of cells at G2/M phase at 1 nM measured after 4 days by PI staining based flow cytometry analysis (reference value: 10.7%). It counts as functional. Particulars: time 4 day.
Data set [9] relates to PC-3. Nature of the data set: Induction of cell cycle arrest in human PC-3 cells assessed as accumulation of cells at G2/M phase at 1000 nM measured after 4 days by PI staining based flow cytometry analysis (reference value: 10.7%). Type of data set: functional. The conditions noted are these: time 4 day.
The test system of data set [10] is PC-3. Kind of data set: Induction of cell cycle arrest in human PC-3 cells assessed as accumulation of cells at G2/M phase at 50 nM measured after 8 days by PI staining based flow cytometry analysis (reference value: 13.9%). It counts as functional. Particulars: time 8 day.
The test system of data set [11] is PC-3. Kind of data set: Induction of cell cycle arrest in human PC-3 cells assessed as accumulation of cells at G1/G0 phase at 1000 nM measured after 8 days by PI staining based flow cytometry analysis (reference value: 73.2%). Type of data set: functional. Particulars: time 8 day.
Data set [12] deals with PC-3. Nature of the data set: Induction of cell cycle arrest in human PC-3 cells assessed as accumulation of cells at S phase at 1 nM measured after 8 days by PI staining based flow cytometry analysis (reference value: 12.9%). It counts as functional. The conditions noted are these: time 8 day.
For data set [13], the system named is PC-3. Nature of the data set: Induction of cell cycle arrest in human PC-3 cells assessed as accumulation of cells at S phase at 1000 nM measured after 8 days by PI staining based flow cytometry analysis (reference value: 12.9%). The conditions noted are these: time 8 day. It counts as functional.
Data set [14] deals with PC-3. Kind of data set: Induction of cell cycle arrest in human PC-3 cells assessed as accumulation of cells at G1/G0 phase at 50 nM measured after 6 days by PI staining based flow cytometry analysis (reference value: 79.8%). It counts as functional. Particulars: time 6 day.
Data set [15] concerns PC-3. Kind of data set: Induction of cell cycle arrest in human PC-3 cells assessed as accumulation of cells at G1/G0 phase at 50 nM measured after 8 days by PI staining based flow cytometry analysis (reference value: 73.2%). It counts as functional. The conditions noted are these: time 8 day.
Data set [16] deals with PC-3. Kind of data set: Induction of cell cycle arrest in human PC-3 cells assessed as accumulation of cells at S phase at 1 nM measured after 6 days by PI staining based flow cytometry analysis (reference value: 8.60%). It counts as functional. The conditions noted are these: time 6 day.
Data set [17] deals with PC-3. Nature of the data set: Induction of cell cycle arrest in human PC-3 cells assessed as accumulation of cells at S phase at 1000 nM measured after 4 days by PI staining based flow cytometry analysis (reference value: 17.9%). Type of data set: functional. Particulars: time 4 day.
In data set [18] the test system is PC-3. Nature of the data set: Induction of cell cycle arrest in human PC-3 cells assessed as accumulation of cells at G1/G0 phase at 1 nM measured after 4 days by PI staining based flow cytometry analysis (reference value: 67.6%). It counts as functional. Particulars: time 4 day.
Data set [19] relates to PC-3. Nature of the data set: Induction of cell cycle arrest in human PC-3 cells assessed as accumulation of cells at G1/G0 phase at 1 nM measured after 8 days by PI staining based flow cytometry analysis (reference value: 73.2%). Particulars: time 8 day. It counts as functional.
The subject of data set [20] is PC-3. Kind of data set: Induction of cell cycle arrest in human PC-3 cells assessed as accumulation of cells at G2/M phase at 1 nM measured after 6 days by PI staining based flow cytometry analysis (reference value: 9.96%). Type of data set: functional. Particulars: time 6 day.
The subject of data set [21] is PC-3. Nature of the data set: Induction of cell cycle arrest in human PC-3 cells assessed as accumulation of cells at G2/M phase at 50 nM measured after 6 days by PI staining based flow cytometry analysis (reference value: 9.96%). Type of data set: functional. The conditions noted are these: time 6 day.
Data set [22] relates to PC-3. Kind of data set: Induction of cell cycle arrest in human PC-3 cells assessed as accumulation of cells at G1/G0 phase at 1 nM measured after 6 days by PI staining based flow cytometry analysis (reference value: 79.8%). It counts as functional. Particulars: time 6 day.
Data set [23] relates to PC-3. Nature of the data set: Induction of cell cycle arrest in human PC-3 cells assessed as accumulation of cells at S phase at 1000 nM measured after 6 days by PI staining based flow cytometry analysis (reference value: 8.60%). Particulars: time 6 day. Type of data set: functional.
Data set [24] has as its system PC-3. Nature of the data set: Induction of cell cycle arrest in human PC-3 cells assessed as accumulation of cells at G2/M phase at 50 nM measured after 4 days by PI staining based flow cytometry analysis (reference value: 10.7%). It counts as functional. Particulars: time 4 day.
The subject of data set [25] is PC-3. Kind of data set: Induction of cell cycle arrest in human PC-3 cells assessed as accumulation of cells at G2/M phase at 1 nM measured after 8 days by PI staining based flow cytometry analysis (reference value: 13.9%). It counts as functional. The conditions noted are these: time 8 day.
In data set [26] the test system is PC-3. Nature of the data set: Induction of cell cycle arrest in human PC-3 cells assessed as accumulation of cells at S phase at 50 nM measured after 8 days by PI staining based flow cytometry analysis (reference value: 12.9%). It counts as functional. Particulars: time 8 day.
Data set [27] relates to PC-3. Kind of data set: Induction of cell cycle arrest in human PC-3 cells assessed as accumulation of cells at G2/M phase at 1000 nM measured after 6 days by PI staining based flow cytometry analysis (reference value: 9.96%). It counts as functional. The conditions noted are these: time 6 day.
For data set [28], the system named is PC-3. Kind of data set: Induction of cell cycle arrest in human PC-3 cells assessed as accumulation of cells at G2/M phase at 1000 nM measured after 8 days by PI staining based flow cytometry analysis (reference value: 13.9%). It counts as functional. The conditions noted are these: time 8 day.

Regarding `CC[C@H](C)[C@@H]([C@@H](CC(=O)N1CCC[C@H]1[C@H](OC)[C@@H](C)C(=O)N[C@@H](Cc1ccccc1)c1nc(CNC(=O)CCC(=O)N2CCN(C(=O)c3ccccc3-c3c4ccc(=[N+](CC)CC)cc-4oc4cc(N(CC)CC)ccc34)CC2)cs1)OC)N(C)C(=O)[C@@H](NC(=O)[C@H](C(C)C)N(C)C)C(C)C` (stereo in doubt), the Drug uptake entry in data set [1] is listed as “Active”.
`CC[C@H](C)[C@@H]([C@@H](CC(=O)N1CCC[C@H]1[C@H](OC)[C@@H](C)C(=O)N[C@@H](Cc1ccccc1)C(=O)O)OC)N(C)C(=O)[C@@H](NC(=O)[C@@H](NC)C(C)C)C(C)C` (H-[NMeV]V[Dil][Dolaproine]F-OH): the Activity is reported as 58.5% in the data set on PC-3 [2]; 44.7% in the data set with PC-3 [3]; 20.8% in the data set on PC-3 [4]; 44.7% in the data set with PC-3 [5]; 30.1% in the data set on PC-3 [6]; 20.2% in the data set on PC-3 [7]. Moreover, the Activity in the data set on PC-3 [8] is 7.89%; in the data set with PC-3 [9], 3.87%; in the data set on PC-3 [10], 18.4%; in the data set on PC-3 [11] it was 27.5%; in the data set on PC-3 [12], 19%; in the data set on PC-3 [13], 60.7%. In addition, the Activity in the data set on PC-3 [14] came out at 70.6%; in the data set on PC-3 [15] it was 50.8%; with PC-3 [16], 11.8%; with PC-3 [17] it was 47.6%; with PC-3 [18], 68.9%; in the data set on PC-3 [19], 65.8%. Besides, the Activity with PC-3 [20] amounted to 10.6%; with PC-3 [21] it was 5.39%; in the data set with PC-3 [22] it was 75.5%; in the data set on PC-3 [23], 47.6%; with PC-3 [24], 8.23%; in the data set with PC-3 [25], 17.2%. In addition, the values for the Activity in the data set on PC-3 [26], in the data set with PC-3 [27] and with PC-3 [28] were 32%, 3.87% and 12.6%, respectively.

The values above are taken from ChEMBL document CHEMBL5550178, “Synthesis and anticancer properties of novel dolastatin 10 analogs featuring five-membered heterocyclic rings with a linkable group at the C-terminus” (Bioorg Med Chem, 2024).
